Where two headings read alike, the source gives them in different places.

As usually defined, the EC50 is the midpoint of the concentration-response curve. For orientation: IC50 means the concentration at which inhibition is half-maximal. Read a high IC50 as a need for much substance.

In one experiment the test system is HCV replicon cells. Description: HCV EC50 determination: replicon cells, luciferase readout. Format: cell-based. As to conditions: Hepatitis C virus, 72 h. How it is done: Replicon cells were seeded in 96-well plates at a density of 8×10^3 cells per well in 100 μL of culture medium, excluding Geneticin. Compound was serially diluted in 100% DMSO and then added to the cells at a 1:200 dilution, achieving a final concentration of 0.5% DMSO and a total volume of 200 μL. Plates were incubated at 37° C. for 3 days, after which culture medium was removed and cells were lysed in lysis buffer provided by Promega's luciferase assay system. Following the manufacturer's instruction, 100 μL of luciferase substrate was added to the lysed cells and luciferase activity was measured in a TopCount luminometer.
(In antiviral work, replicon cells carry a viral genome segment that copies itself.)

For another experiment, the target named is T1, HCV Δ21 NS5b polymerase (Hepatitis C virus genotype 1b, UniProt Q9WMX2).
T1 construct: 75 nM HCV Δ21 NS5b polymerase
The experiment in a line: HCV IC50 determination: NS5b polymerase assay. Format: biochemical. As to conditions: triphosphates of the listed examples, 35° C., 90 min. How it is done:
Assay Protocol: NS5b polymerase assay (40 μL) was assembled by adding 28 μL polymerase mixture (final concentration: 50 mM Tris-HCl at pH 7.5, 10 mM KCL, 5 mM MgCl2, 1 mM DTT, 10 mM EDTA, 4 ng/μL of RNA template, and 75 nM HCV Δ21 NS5b polymerase) to assay plates followed by 4 μL of compound dilution. The polymerase and compound were pre-incubated at 35° C. for 10 minute before the addition of 8 μL of nucleotide substrate mixture (33P-α-labeled competing nucleotide at KM and 0.5 mM of the remaining three nucleotides). The assay plates were covered and incubated at 35° C. for 90 min. Reactions were then filtered through 96-well DEAE-81 filter plates via vacuum. The filter plates were then washed under vacuum with multiple volumes of 0.125 M NaHPO4, water, and ethanol to remove unincorporated label. Plates were then counted on TopCount to assess the level of product synthesis over background controls. The IC50 value was determined using Prism fitting program.

Setting [1] is: replicon cells, 3 days at 37° C., luciferase activity, read-out: EC50.

With `C[C@@]1(O)[C@H](O)[C@@H](CO)O[C@H]1c1cnc2c(N)ncnn12` [Compound 1, (2S,3R,4R,5 R)-2-(4-aminoimidazo[1,2-f][1,2,4]triazin-7-yl)-5-(hydroxymethyl)-3-methyl-tetrahydrofuran-3,4-diol], in the experiment on HCV replicon cells (setting [1]), the EC50 was under 10 µM.
Same read-out and setting: to `C[C@@]1(O)[C@H](O)[C@@H](CO)O[C@H]1c1cnc2c(N)nc(N)nn12` [Compound 3] belongs under 250 µM.
Molecule `CC(C)OC(=O)[C@H](C)NP(=O)(OC[C@H]1O[C@@H](c2nnc3c(=O)[nH]c(N)nn23)[C@](C)(O)[C@@H]1O)Oc1ccc(Cl)cc1` (stereo partly drawn) [Compound 9] registered an EC50 in the experiment on HCV replicon cells of under 250 µM.
Turning to `CNc1ncnn2c([C@@H]3O[C@H](CO)[C@@H](O)[C@@]3(C)O)cnc12` [Compound 17], the half-maximal effective concentration (EC50) with HCV replicon cells (setting [1]) was under 10 µM.
For `CNc1ncnn2c([C@@H]3O[C@H](COP(=O)(OCCSC(=O)C(C)(C)C)OCCSC(=O)C(C)(C)C)[C@@H](O)[C@@]3(C)O)cnc12` [Compound 18], the EC50 in the experiment on HCV replicon cells was under 10 µM.
Turning to “(2S,3R,4R,5 R)-2-(4-aminoimidazo[1,2-f][1,2,4]triazin-7-yl)-5-(hydroxymethyl)-3-methyl-tetrahydrofuran-3,4-diol [Compound 1]”, the IC50 against HCV Δ21 NS5b polymerase is under 10 µM.

These data come from patent US8012941B2, “Carba-nucleoside analogs for antiviral treatment” (Gilead Sciences, Inc., priority 2008, dated 2011).
